Measurements published in patent publication US10513709B2, “Somatic cell nuclear transfer methods” (priority 2013, dated 2019).

Assays:
[1] = tested on: enucleated mouse oocytes; test: Chromosome segregation at the first mitosis after nuclear transfer; type: cell-based
Description: To further investigate the mechanism of genomic instability after somatic cell nuclear transfer, we transferred genomes of somatic and embryonic mouse cells into enucleated mouse oocytes. As a control for our manipulations, we transplanted oocyte genomes from one MII oocyte to another. We first quantified the number of abnormal anaphase figures in unmanipulated oocytes, including bridges, fragments, and missegregating chromosomes. Abnormalities in parthenotes were few, or less than 5 percent at anaphase of the second meiosis and the first mitosis (FIG. 13A). […] Upon transfer of mitotic fibroblast or ES cell genomes into MII oocytes, the frequency of these abnormalities remained unaltered, or 6% and 6.9%. […] Abnormal anaphase figures were further increased when using interphase genomes of either cumulus cells or T cells.
As different cell types are known to differ in their gene expression pattern, we first determined whether gene expression during the first cell cycle was required for a normal chromosome segregation at the first embryonic mitosis. […] As cell-type specific gene expression appeared to be irrelevant to chromosome segregation at the first mitosis, we investigated whether other cell-type specific properties of the genome were of importance. It appeared conceivable that for normal chromosome segregation, the prior duplication of the genome at interphase must also be normal. To distinguish whether the chromosome segregation we observed were due to abnormal spindle attachment to chromosomes or due to structural deficiencies that can arise during DNA replication, we stained anaphases with antibodies recognizing centromeres. […]
To determine whether other parameters known to affect the developmental efficiency after somatic cell nuclear transfer affected the fidelity of segregation at the first mitosis, we investigated the role of the nuclear structure. […] We transferred somatic nuclei within the first hour post activation, and analyzed chromosome segregation at the first mitosis. […]

[2] = tested on: human oocytes; test: Development of human somatic cell nuclear transfer oocytes beyond the cleavage stage; type: cell-based
Description: Oocytes were enucleated using microtubule birefringence (Oosight) as described previously by Noggle et al., 2011. Nuclear transfer was performed by fusion of somatic cells to oocytes using inactivated Sendai virus diluted 1:10 to 1:20 in suspension medium. Fusion was confirmed visually. 1-3 hours post fusion, oocytes were activated using 3 μM ionomycin in Global total for 5 minutes at 37 degrees celsius, followed by culture in 10 μM puromycin, 2 mM 6-DMAP, as well as the histone deacetylase (HDAC) inhibitors scriptaid and nch51 for 4 to 4.5 hours. Activated constructs were cultured in HDAC inhibitor for an additional 10-16 hours, followed by culture in Global total only. Culture was performed in a MINC incubator fed with gas containing 6% CO2, 5% oxygen and 89% nitrogen. Calcium-free medium was used for some of the manipulations resulting in nuclear transfer ES cells.
For some of the experiments described above additional modifications were introduced as described in Tachibana et al., 2013. Caffeine at a 1 mM concentration was added to the incubation medium during enucleation and oocyte fusion. Oocytes were activated using 2-4 pulses of 50 μs width at 2.7 kV/cm in mannitol containing fusion medium using an LF201 pulser (Nepagene), followed by 4 hours of culture in 2 mM 6-DMAP. Activated constructs were cultured in Global total containing 10% FBS and TSA for 12 hours, followed by culture to the blastocysts stage in medium containing 10% FBS.
The derivation of nuclear transfer ES cell lines from BJ fibroblasts at passage 11 was performed using nuclear transfer 30 min prior to the removal of the oocyte genome in the presence of 1 mM caffeine. Derivation of the adult cell NT-ES cell line was performed using somatic cells at passage 8, from a subject with T1D (ID-1018). Oocytes were transported in GMOPSplus containing 1 mM caffeine. Upon completion of the manipulation, oocytes were incubated for 45 min-1 h in calcium-free MCZB, then placed in calcium containing medium for 10 min prior to activation and culture as described above. Oocyte activation was performed within 2 hours post transfer using 4 electrical pulses, followed by incubation in medium containing HDAC inhibitors scriptaid and nch51, in addition to 10 μg/ml puromycin and 2 mM 6-DMAP for 4 hours, and thereafter, medium containing HDAC inhibitor for 15 hours. Culture was performed in a Heracell 150i incubator containing 5% CO2 at 37° C., in Global medium (IVFonline LGGG-050) containing 10% fetal bovine serum. ES cell derivation was conducted in medium containing DMEM/F12 supplemented with 10% KO-SR and 10% FBS, Rock inhibitor Y-27632, thiazovivin, non-essential amino acids, 10 ng/ml bFGF, Glutamax, and beta mercaptoethanol (all reagents from Life Technologies). Upon attachment, trophectoderm cells were ablated using laser pulses using a Lykos laser (Hamilton Thorne). Outgrowths were apparent within 10 days of plating, and were picked when colonies reached a size of about 1 mm in diameter. Passaging was done enzymatically using TrpLE (Life Technologies) and standard ES cell medium (substituting FBS with KO-SR and DMEM/F12 with KO-DMEM) using Rock inhibitor Y-27632 for the first day after plating.

[3] = tested on: enucleated human oocytes; test: Activation and polar body extrusion after transfer of a mitotic somatic genome; type: cell-based
Description: We next sought to determine the timing and molecular mechanism of these chromosomal abnormalities. We reasoned that if the removal of the oocyte spindle removed essential components, then these defects should be apparent at the second meiotic division. We removed the oocyte spindle-chromosome complex, and transferred the mitotic genome of a somatic cell that had been collected upon treatment with nocodazole and were kept on ice prior to transfer (FIG. 12A). Remarkably, within 1-2 hours post transfer, birefringent spindles were assembled in oocytes and chromosomes were aligned on the metaphase plate (FIGS. 12A, 12B, 12C). Upon artificial activation using a calcium ionophore and puromycin, 16/19 oocytes segregated somatic cell chromatin into a polar body and formed a single pronucleus in the activated oocyte (FIG. 12F-I). And like upon segregation of oocyte chromatin, a midbody formed and the chromosome passenger complex component survivin localized to the midbody (FIG. 12E). To examine the accuracy of chromosome segregation, (pseudo-) polar bodies were biopsied and the karyotype determined using nucleotide polymorphism arrays. […] However, when we analyzed the karyotype of blastomeres using nucleotide arrays, we found a large number of karyotypic abnormalities (FIG. 12I-L). […]

[4] = tested on: oocytes; settings: oocyte activation with puromycin versus 6-dmap; cited from earlier work
[5] = enucleated oocytes, agent used at activation / first 17 hours of embryo culture

For `CN(C)c1ncnc2nc[nH]c12` [6-dmap, 6-(dimethylamino)purine], the “dividing embryos severely abnormal” value ([1]; somatic nuclei transferred within first hour after activation and kinase inhibition with 6-dmap) was 90%.

With `CC[C@H](C)[C@@H]1NC(=O)CNC(=O)[C@@H]2Cc3c([nH]c4cc(O)ccc34)[S+]([O-])C[C@@H](NC(=O)CNC1=O)C(=O)N[C@@H](CC(N)=O)C(=O)N1C[C@H](O)C[C@H]1C(=O)N[C@@H]([C@@H](C)[C@@H](O)CO)C(=O)N2` (stereo partly drawn) [alpha amanitin] the “frequency of normal mitotic figures” value ([1]; added to culture medium during first cell cycle) was “did not significantly increase”.

In the case of `Cn1c(=O)c2c(ncn2C)n(C)c1=O` [caffeine], the “efficiency and quality of blastocysts” value ([2]; caffeine also during oocyte transport, calcium omitted from manipulation medium) is reported as “most efficient and high quality blastocyts” and the blastocyst development ([2]; electrical pulse for activation and caffeine during oocyte manipulation) is reported as 10%.

For `COc1ccc(C[C@H](N)C(=O)N[C@H]2[C@@H](O)[C@H](n3cnc4c(N(C)C)ncnc43)O[C@@H]2CO)cc1` [puromycin], the “development after somatic cell nuclear transfer” value [2, 5] was “development still arrested at cleavage stages”, the “development after somatic cell nuclear transfer” value ([2]; oocyte genome not removed, puromycin for oocyte activation) was “efficient development to the blastocyst stage” and the “oocytes segregating somatic chromatin into a polar body and forming a single pronucleus” value ([3]; activation with a calcium ionophore and puromycin) was 16/19. For the same compound, the “oocyte activation shown by polar body extrusion” value ([3]; puromycin for 4 hours without meiotic kinase inhibitor, M-phase somatic genome) was “efficient polar body extrusion” and the efficiency of parthenogenesis [4] was “more efficient”.

For `O=C(CCCCCN1C(=O)c2cccc3cccc(c23)C1=O)NO` [scriptaid, 6-(1,3-Dioxo-1H,3H-benzo[de]isoquinolin-2-yl)-hexanoic acid hydroxyamide], the “development after somatic cell nuclear transfer” value [2, 5] was “development to the morula and blastocyst stage at a low frequency” and the “frequency of chromosome segregation errors” value ([1]; first mitosis) was “decreased the frequency of chromosome segregation errors”.
